Measurements reported in patent publication US20110136868A1, “AGENTS FOR INHIBITING OSTEOCLASTOGENESIS AND/OR OSTEOCLAST ACTIVATION” (University of Oxford, priority 2009, published 2011).
Entries after “also recorded” stand apart in the source; their conditions may differ.

Key:
Mouse bone marrow cells [1] = experiment: Promotion of osteoclastogenesis by GM3 and IGF-1 with M-CSF and RANKL, TRAP positive mature osteoclast count; format: cell-based
Procedure: A. Mouse bone marrow cells were cultured in the presence of 25 ng/ml M-CSF with 50 ng/ml RANKL and GM3 (0.05, 0.5 or 5 μM) in 48-well plates for 4 days. Cultures on plastic plates were fixed and stained for TRAP. TRAP positive mature osteoclast cells were counted.
As well as RANKL+M-CSF, IGF-1 at the indicated concentrations was added.
C. […] OC were developed in the presence of RANKL+M-CSF (control), or these two cytokines plus IGF-1, GM3 or IGF-1+GM3.

osteoclast formation = conditions: Iwamoto et al. 2001, cited from earlier work
Mouse bone marrow cells [2] = experiment: in vitro RANKL-dependent osteoclastogenesis, TRAP positive osteoclast count; format: cell-based
Procedure: Cultures on plastic plates were fixed and stained for TRAP (tartrate resistant acid […]). TRAP positive multi-nuclear (>3 nuclei) osteoclast cells were counted.
B. Mouse bone marrow cells were cultured in the presence of 25 ng/ml M-CSF with 50 ng/ml RANKL in 48-well plates. On day 3 d-PDMP (1.25, 5 or 20 μM), NB-DNJ, NB-DGJ, or N-OD-DNJ (5, 50, or 500 μM) were added. Cells were cultured for another 24 hours before fixed and stained for TRAP. TRAP positive osteoclast cells mature were counted on day 4 (left). Morphology of 4 day osteoclasts.

[3] = target: T1, ceramide glucosyltransferase (CGT) (Homo sapiens, UniProt Q16739); conditions: literature; cited from earlier work
T1 sequence (Q16739 1-394): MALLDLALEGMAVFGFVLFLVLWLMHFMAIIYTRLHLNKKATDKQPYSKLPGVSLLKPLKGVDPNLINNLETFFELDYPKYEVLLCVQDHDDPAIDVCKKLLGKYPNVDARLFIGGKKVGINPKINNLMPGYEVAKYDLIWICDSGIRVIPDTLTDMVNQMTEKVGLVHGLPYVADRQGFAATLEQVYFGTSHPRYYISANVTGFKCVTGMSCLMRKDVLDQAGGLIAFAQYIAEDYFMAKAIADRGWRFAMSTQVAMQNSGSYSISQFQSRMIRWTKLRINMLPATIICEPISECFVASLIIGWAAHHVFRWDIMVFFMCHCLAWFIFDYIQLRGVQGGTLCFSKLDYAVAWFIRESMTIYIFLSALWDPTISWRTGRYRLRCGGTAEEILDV

[4] = tested on: human, monocyte-derived OC; experiment: RANKL- and M-CSF-dependent development of human monocyte-derived OC; format: cell-based; conditions: added either in the beginning or during OC differentiation cultures
[5] = tested on: MAPK signaling (ERK, p38, JNK); experiment: MAPK signalling during osteoclastogenesis, immunoblot pERK1/2, pP38, pJNK after RANKL or M-CSF; format: cell-based, mouse; conditions: BMCs day 3, serum starved overnight
Procedure: (§1) BMCs were cultured to day 3 then starved in 0.5% serum medium overnight. Cells were treated with RANKL (A) or M-CSF (B) for the time points indicated and then immunoblotted with α-pERK1/2, α-pP38, α-pJNK antibodies. Membranes were stripped and restained with α-ERK, α-P38, α-JNK antibodies. […] Overnight serum starved OC were treated as indicated as subsequently stained with anti-NFATc1 and viewed by immunofluorescent microscopy. NB-DNJ abrogated the M-CSF+RANKL-induced accumulation of NFAtc1 in the nyclei. (D) BMCs were cultured 48 h with different combination of M-CSF, RANKL and NB-DNJ. Cells were collected and nuclear protein extracted and NFATc1 expression was checked by Western blot. Staining of histone-1 served as loading control.

NFATc1 = NFATc1 nuclear accumulation in OC (immunofluorescence, Western blot of nuclear protein); format: cell-based, mouse
Procedure: as §1

[6] = tested on: RAW 264.7 murine macrophage cells; experiment: Association of TRAF6 and Src with lipid rafts, sucrose gradient fractionation; format: cell-based; conditions: 50 ng/ml RANKL, 4 days
Procedure: Localization of TRAF6, […] GM1 gangliosides in lipid rafts (fraction 3-5) or non-raft fractions (fraction 7-9) in RAW 264.7 murine macrophage cells were cultured in medium only (control), in the presence of 50 ng/ml RANKL or RANKL+NB-DNJ in 48-well plates for 4 days. Cell lysates were prepared and separated using discontinuous sucrose gradient ultracentrifugation. A total of 9 fractions (1 ml each) were collected from the top to the bottom of the gradients, fraction 2 to 5 were positive for GM1 gangliosides, i.e. contained lipid rafts. The non-raft fractions were 7 to 9. Without RANKL, TRAF6 localises in the non-raft fraction while Src is presented in both raft and nonraft fractions. After RANKL treatment, TRAF6 was detected in raft fraction and Src almost totally shifted into the raft fractions.

osteoclast activation [7] = experiment: in vivo alpha-galactosylceramide-induced OC activation, serum CTX levels; parameters: species or system C57BL/6 mice
Procedure: NB-DNJ (500 mg/Kg) or PBS were injected intraperitoneal (i.p.) once a day for 6 consecutive days in 8 wk old C57BL/6 mice. Alpha-galactosylceramide or PBS was administered by a single i.p. injection of 2 μg on day 3. Serum collected on day 7 was used to determine carboxyterminal cross-linking telopeptide of type 1 collagen (CTX) levels (n=4-5 8 wk old female C57BL/6 mice).

osteoclast activation [8] = experiment: in vivo RANKL-induced OC activation, serum CTX levels; parameters: species or system mice; conditions: NB-DNJ 500 mg/Kg i.p. daily, RANKL 4 mg/day i.p. from day 3
[9] = tested on: MAPK signaling (ERK, p38, JNK); experiment: GM3-induced ERK, P38, JNK phosphorylation in OC, immunoblot; format: cell-based, mouse
Procedure: D. OC were cultured with M-CSF+RANKL to day 3 then starved in 0.5% serum medium overnight. Cells were treated with GM3 or GM3+NB-DNJ for the time points indicated and then immunoblotted with α-pERK1/2, α-pP38, α-pJNK antibodies. Membranes were stripped and restained with α-ERK, α-P38, α-JNK antibodies.

α-glucosidase = conditions: Platt et al. 1994; cited from earlier work
β-glucosidase = conditions: Platt et al. 1994; cited from earlier work

Q: With “IGF-1: growth factor known to promote myeloma growth and OC activation” as the compound, how does the “osteoclastogenesis with IGF-1” value (Mouse bone marrow cells [1]; RANKL+M-CSF plus IGF-1) read?
A: Its value is “promotes osteoclastogenesis”.

Q: What about the “OC maturation, GM3 plus IGF-1” value (Mouse bone marrow cells [1]; RANKL+M-CSF plus IGF-1 and GM3) of the same compound?
A: The value was “co-operates with GM3 in promoting osteoclastogenesis”.

Q: With lactosylceramide as the compound, how does the “effect on RANKL-dependent osteoclastogenesis” value (osteoclast formation; exogenous, in vitro) read?
A: The value was “synergistic effect”.

Q: Which “reduction in OC activation compared with NB-DNJ” value (Mouse bone marrow cells [2]) does the source give for `CCCCN1C[C@H](O)[C@@H](O)[C@@H](O)[C@H]1CO` [NB-DGJ, N-butyl-deoxygalactonojirimycin] here?
A: Its value is “significantly less potent”.

Q: For `CCCCCCCCCC(=O)N[C@H](CN1CCOCC1)[C@H](O)c1ccccc1` [d-PDMP, D-threo-1-phenyl-2-decanoylamin-3-morpholino-1-propanol], which “reduction in OC activation compared with NB-DNJ” value (Mouse bone marrow cells [2]) is on record?
A: Its value is “as effective”.

Q: What about the “inhibition of osteoclast formation / OC development” value (osteoclast formation) of the same compound?
A: Its value is “can inhibit the osteoclast formation; also recorded: can prevent OC development”.

Q: What about the “inhibitory effect on CGT” value [3] of the same compound?
A: Its value is “known CGT inhibitor”.

Q: With `CCCCN1C[C@H](O)[C@@H](O)[C@H](O)[C@H]1CO` [NB-DNJ, N-butyl-deoxynojirimycin] as the compound, how does the “inhibition of RANKL- and M-CSF-dependent development of murine OC” value (Mouse bone marrow cells [2]; added either in the beginning or during OC differentiation cultures) read?
A: The value was “inhibit RANKL- and M-CSF-dependent development of murine as well as human, monocyte-derived OC in a dose dependent manner”.

Q: What about the “inhibition of RANKL- and M-CSF-dependent development of human monocyte-derived OC” value [4] of the same compound?
A: The value was “inhibit RANKL- and M-CSF-dependent development of murine as well as human, monocyte-derived OC in a dose dependent manner”.

Q: And the “RANKL- and M-CSF-dependent phosphorylation of ERK, JNK and p38” value [5]?
A: Its value is “phosphotylation of p38 and to a lesser extend of ERKa,d Jnk is observed; also recorded: significantly reduced”.

Q: And the “nuclear NFATc1 expression” value (NFATc1; Western blot, BMCs cultured 48 h with M-CSF, RANKL)?
A: The value was “Considerably less nuclear NFTc1”.

Q: What about the “M-CSF+RANKL-induced accumulation of NFATc1 in the nuclei” value (NFATc1; immunofluorescent microscopy, serum starved OC) of the same compound?
A: The value was “abrogated; also recorded: reduced localisation of NFATc in the nucleus”.

Q: What about the “RANKL-induced localisation of TRAF6 and Src in lipid rafts” value [6] of the same compound?
A: Its value is “TRAF6 and Src are excluded from the rafts”.

Q: And the “serum CTX levels, αGC-induced OC activation” value (osteoclast activation [7]; NB-DNJ 500 mg/Kg i.p. daily plus alpha-galactosylceramide 2 μg i.p. day 3, serum day 7)?
A: The value was “inhibits a-galactosylceramide-induced OC activation; also recorded: returned to baseline”.

Q: And the “serum CTX levels, NB-DNJ only” value (osteoclast activation [7]; mice receiving only NB-DNJ, p>0.05)?
A: Its value is “not significantly different to vehicle controls”.

Q: What about the “serum CTX levels, RANKL-induced OC activation” value (osteoclast activation [8]) of the same compound?
A: The value was “inhibits RANKL-induced OC activation”.

Q: And the “GM3-promoted phosphorylation of ERK, P38 and JNK, effect of NB-DNJ” value [9]?
A: The value was “abrogated”.

Q: And the α-glucosidase inhibitory activity (α-glucosidase)?
A: Its α-glucosidase inhibitory activity is “have both α- and β-glucosidase inhibitory activities”.

Q: And the β-glucosidase inhibitory activity (β-glucosidase)?
A: Its β-glucosidase inhibitory activity is “have both α- and β-glucosidase inhibitory activities”.

Q: With `CCCCCCCCCCCCCCCCCCCCCCCCCC(=O)N[C@@H](CO[C@H]1O[C@H](CO)[C@H](O)[C@H](O)[C@H]1O)[C@H](O)[C@H](O)CCCCCCCCCCCCCC` [αGC, alpha-galactosylceramide] as the compound, how does the “increase of serum CTX levels” value (osteoclast activation [7]; mice receiving αGC, p<0.01) read?
A: Its value is ~50%.
